Data from ChEMBL document CHEMBL4725322, “New 30-norlupane derivatives through chemical-microbial semi-synthesis of betulinic acid and their neuroprotective effect” (Bioorg Med Chem Lett, 2020).

Key:
[1] = test system: PC-12; test: Neuroprotective activity against CoCl2-induced neuronal injury in rat PC-12 cells assessed as increase in cell viability; assay type: functional, cell-based
[2] = test system: PC-12; test: Neuroprotective activity against CoCl2-induced neuronal injury in rat PC-12 cells assessed as cell viability at 30 uM relative to control; assay type: functional; settings: read-out: Activity
[3] = Rattus norvegicus, PC-12, read-out: EC50

Structure (SMILES) | EC50 [1, 3] [nM] | viability at 30 µM [2] [%] | EC50 ([1]; pc-12)
CC(=O)[C@@H]1CC[C@]2(C(=O)O)CC[C@]3(C)[C@H](C[C@@H](O)[C@@H]4[C@@]5(C)CCC(=O)C(C)(C)[C@@H]5CC[C@]43C)[C@@H]12 | 10 | 102 | 
CC(=O)[C@@H]1CC[C@]2(C(=O)O)C[C@H](O)[C@]3(C)[C@H](CC[C@@H]4[C@@]5(C)CC[C@H](O)C(C)(C)[C@@H]5C[C@H](O)[C@]43C)[C@@H]12 |  | 99.4 | Not Active
CC(=O)[C@@H]1CC[C@]2(C(=O)O)CC[C@]3(C)[C@H](CC[C@@H]4[C@@]5(C)CC[C@H](O)C(C)(C)[C@@H]5C[C@H](O)[C@]43C)[C@@H]12 |  | 105 | Not Active
CC(=O)[C@@H]1CC[C@]2(C(=O)O)CC[C@]3(C)[C@H](CC[C@@H]4[C@@]5(C)CCC(=O)C(C)(C)[C@@H]5C[C@H](O)[C@]43C)[C@@H]12 |  | 96 | Not Active
CC(=O)[C@@H]1CC[C@]2(C(=O)O)C[C@H](O)[C@]3(C)[C@H](CC[C@@H]4[C@@]5(C)CCC(=O)C(C)(C)[C@@H]5C[C@H](O)[C@]43C)[C@@H]12 |  | 104 | Not Active
CC(=O)[C@@H]1CC[C@]2(C(=O)O)CC[C@]3(C)[C@H](CC[C@@H]4[C@@]5(C)CC[C@H](O)C(C)(C)[C@@H]5CC[C@]43C)[C@@H]12 [PLATANIC ACID] | 170 | 96.8 | 
CC(=O)[C@@H]1CC[C@]2(C(=O)O)CC[C@]3(C)[C@H](CC[C@@H]4[C@@]5(C)CC[C@H](O)[C@@](C)(CO)[C@@H]5C[C@H](O)[C@]43C)[C@@H]12 |  | 110 | Not Active
CC(=O)[C@@H]1CC[C@]2(C(=O)O)CC[C@]3(C)[C@H](C[C@@H](O)[C@@H]4[C@@]5(C)CCC(=O)C(C)(C)[C@@H]5C[C@H](O)[C@]43C)[C@@H]12 |  | 105 | Not Active
OC[C@H]1O[C@@H](OCCc2ccc(O)cc2)[C@H](O)[C@@H](O)[C@@H]1O [SALIDROSIDE] |  | 99.2 | 
